Data from US20110124842A1 (priority 2003, published 2011).
pKd: −log10 of the molar value. Like-named read-outs stand apart in the source and are kept apart here.

Key:
[1] = Circular dichroism spectroscopy of free peptides in solution (helicity); type: physicochemical; conditions: FIG. 48
Description: To determine whether the imposed constraints increased the helicity of the peptides, each one was analyzed in solution using circular dichroism (CD) spectroscopy (FIG. 48). An Aviv spectropolarimeter Model 203-02 was used, with cells of 0.1 cm in length, a wavelength step of 0.5 nm and a bandwidth of 1.0 nm. One to three scans were reported. The exact peptide concentrations were determined by UV measurements at 280 nm on a Gison UV detector, model 116.

HIV-1JR-FL = test: Peptide effect on neutralization by antibodies and sera, pseudotyped virus, U87.CD4.CCR5 cells; type: cell-based; conditions: FIG. 50
Description: FIG. 50 represents graphs showing the effect of peptide […]-NH2 (SEQ ID NO: 8) on neutralization of HIV-1 by polyclonal antibodies and sera. HIV-1JR-FL, pseudotyped using the pNL4-3.Luc reporter plasmid, was assayed for neutralization using pooled polyclonal IgG from HIV-1 seropositive individuals (HIVIG), broadly neutralizing serum from the FDA2 individual and normal human serum spiked with 4E10 at 200 μg/ml in the undiluted serum. Neutralization assays were performed using U87.CD4.CCR5 cells as target cells, in the presence (open symbols) or absence (closed symbols) of peptide […]-NH2 (SEQ ID NO: 8). Note that the zero point in serum dilution corresponds to only 30 μg/ml 94-1 being present.
To further investigate the interaction of peptide analogs and 4E10, the inhibitory effect of the best analogs on neutralization by 4E10 was assessed. Neutralization assays were performed in two different formats. In the first, replication competent HIV-1SF162 was assayed for neutralization using TZM-b1 cells as indicator cells (Wei, X., 2002). Alternatively, a pseudotype assay was used in which recombinant HIV-1JR-CSF virions, competent for a single round of infection, were generated using the luciferase reporter plasmid pNL4-3.Luc.R-E-, as described previously (Connor, R. I., 1995; Zwick, M. B., 2003), and the pseudovirus assayed for neutralization using U87.CD4.CCR5 cells as target cells (Bjorndal, A., 1997). In all cases, the competitor peptide ([…]-NH2; SEQ ID NO: 8) and IgG 4E10 were pre-incubated for 30 minutes at 37° C. (60 μg/ml), then the mixture was added (1:1 by volume) to HIV-1, and the resulting mixture incubated for a further hour at 37° C. The mixture of peptide, 4E10, and HIV-1 was then added (1:1 by volume) to the target cells, and the assay developed using luciferase reagent (Promega) following 48-72 hour incubation at 37° C. The degree of virus neutralization was determined as a percentage reduction of viral infectivity against an Ab-free control. All experiments were performed in triplicate and repeated at least twice with similar results.

Fab 4E10 = test: Surface plasmon resonance (Biacore 2000), Fab 4E10 on CM5 chip; type: binding, human
Description: The affinitiefs of the peptide analogs for 4E10 were also measured by surface plasmon resonance. Surface plasmon resonance experiments were performed using a Biacore 2000 instrument (Uppsala, Sweden). Around 2,200 response units (RU) of Fab 4E10 were coated on CM5 chips. The carboxyl groups on the chip were activated with 1-ethyl-3-(3-dimethylaminopropyl)carbodiimide hydrochloride (EDC) and N-hydroxysuccinimide (NHS). Fifty micrograms of Fab were diluted in 10 mM sodium acetate pH 4.5; a flow rate of 5 μl/min was used. Unreacted carboxyl groups were blocked with 1M ethanolamine at pH 8.5. The control was treated in the same fashion without any antibody present. Different amounts of free peptides were then passed over the surfaces at 30 or 50 μl/min for 2 min. Regeneration was done in HPS-EP buffer, 0.25 NaCl (Biacore) in 10 minutes. The amount of salt was increased compared to the commercial buffer to reduce the non-specific binding. For data evaluation, the BIAevaluation software was used. RI and Rmax were controlled, double referencing were done (0 concentration and start point). Analyses were performed to achieve the best curve fitting and small chi^2 (<1).
Surface plasmon resonance experiments were performed using a Biacore 2000 instrument (Uppsala, Sweden).
Chip preparation: around 2,200 response units (RU) of Fab 4E10 were coated on CM5 chips. The carboxyl groups on the chip were activated with 1-ethyl-3-(3-dimethylaminopropyl) carbodiimide hydrochloride (EDC) and N-hydroxysuccinimide (NHS). Fifty micrograms of Fab was diluted in 10 mM sodium acetate pH 4.5; a flow rate of 5 μl/min was used. Unreacted carboxyl groups were blocked with 1M ethanolamine at pH 8.5. The control was treated in the same fashion without any antibody present.
Experiment: different amounts of free peptides were then passed over the surfaces at 30 or 50 μl/min for 2 min. Regeneration was done in HPS-EP buffer, 0.25 NaCl (Biacore) in 10 min. The amount of salt was increased compared to the commercial buffer to reduce the non-specific binding.
Data evaluation: the BIAevaluation software was used. RI and Rmax were controlled, double referencing were done (0 concentration and start point). Analyses were performed to achieve the best curve fitting and small chi^2 (<1).

NWFDITNWLWYIKKKK [Peptide 94-1, NWFDITNWLWYIKKKK-NH2]
helicity in solution by CD [1]: more helical than 84-1 | block of neutralization by normal sera spiked with 4E10 (HIV-1JR-FL): blocks neutralization | block of neutralization by the reference sera FDA2 (HIV-1JR-FL): does not block neutralization | block of neutralization by polyclonal IgG from HIV-1 infected donors (HIV-1JR-FL; HIVIG): does not block neutralization | higher affinity of 4E10 than to peptide 33-1 (Fab 4E10; Table 7): about 17 fold | koff (Fab 4E10; Table 7): 0.0138 s⁻¹ | kon (Fab 4E10; Table 7): 691000 M⁻¹ s⁻¹ | pKd (Fab 4E10; Table 7, 4E10 peptide epitopes, read-out: Kd): 7.70 | pKd (Fab 4E10; read-out: Kd (Biacore)): 7.74
